Patent US20200087248A1, “Fluoroallylamine Derivative And Use Thereof” (SICHUAN KELUN-BIOTECH BIOPHARMACEUTICAL CO., LTD., priority 2017, published 2020)
Where a name gives a salt, the structure may show the parent alone.

Tests used:
DAO = target: T1, DAO (Homo sapiens, UniProt P19801); test: Inhibition of the enzymatic activity of DAO; assay type: biochemical; conditions: DAO 15 μg/ml, histamine substrate; read-out: IC50, inhibition against the enzymatic activity of DAO
T1 construct: purchased R&D Systems
T1 sequence (P19801 20-751): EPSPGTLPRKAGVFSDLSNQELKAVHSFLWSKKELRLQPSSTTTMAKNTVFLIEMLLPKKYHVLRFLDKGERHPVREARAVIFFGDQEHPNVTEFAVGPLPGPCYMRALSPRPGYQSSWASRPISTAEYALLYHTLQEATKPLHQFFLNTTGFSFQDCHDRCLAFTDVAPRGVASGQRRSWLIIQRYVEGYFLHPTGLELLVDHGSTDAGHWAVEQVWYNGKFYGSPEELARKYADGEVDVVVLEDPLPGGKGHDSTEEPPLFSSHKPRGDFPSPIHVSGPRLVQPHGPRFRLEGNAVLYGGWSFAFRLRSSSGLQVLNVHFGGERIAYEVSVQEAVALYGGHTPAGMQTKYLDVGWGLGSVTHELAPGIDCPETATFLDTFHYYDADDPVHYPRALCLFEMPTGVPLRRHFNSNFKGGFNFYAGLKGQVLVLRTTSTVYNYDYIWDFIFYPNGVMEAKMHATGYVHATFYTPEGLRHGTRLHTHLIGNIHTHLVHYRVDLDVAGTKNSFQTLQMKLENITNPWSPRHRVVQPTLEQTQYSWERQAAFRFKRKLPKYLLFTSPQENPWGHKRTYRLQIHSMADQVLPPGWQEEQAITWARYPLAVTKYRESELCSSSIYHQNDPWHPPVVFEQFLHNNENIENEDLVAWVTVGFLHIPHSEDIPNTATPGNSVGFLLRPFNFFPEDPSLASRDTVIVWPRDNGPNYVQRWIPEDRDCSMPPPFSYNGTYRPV
Method: Inhibition Experiment Against the Enzymatic Activity of DAO (Diamine Oxidase)
(§1) 1. Test kit: Amplex® Red Monoamine Oxidase Assay, Manufacturer: ThermoFisher
Protein: DAO, manufacturer: R&D Systems
DAO protein (15 μg/ml) and different concentrations of the test compound were pre-incubated at room temperature for 20 minutes, and then 100 μM Histamine-dihydrochloride, 1 U/mL HRP and 200 μM Amplex Red reagent were added to start the reaction. The inhibition rate of each concentration groups were calculated according to the experimental method of MAO-A.

hERG = target: T2, hERG (Homo sapiens, UniProt Q12809); test: hERG fluorescence polarization inhibition experiment; conditions: hERG cell membrane, 25° C. 2 hours, read-out: hERG (IC50 range, competitive binding vs tracer)
T2 construct: purchased ThermoFisher; host or cells: hERG cell membrane supplied with the kit
T2 sequence (Q12809 whole entry): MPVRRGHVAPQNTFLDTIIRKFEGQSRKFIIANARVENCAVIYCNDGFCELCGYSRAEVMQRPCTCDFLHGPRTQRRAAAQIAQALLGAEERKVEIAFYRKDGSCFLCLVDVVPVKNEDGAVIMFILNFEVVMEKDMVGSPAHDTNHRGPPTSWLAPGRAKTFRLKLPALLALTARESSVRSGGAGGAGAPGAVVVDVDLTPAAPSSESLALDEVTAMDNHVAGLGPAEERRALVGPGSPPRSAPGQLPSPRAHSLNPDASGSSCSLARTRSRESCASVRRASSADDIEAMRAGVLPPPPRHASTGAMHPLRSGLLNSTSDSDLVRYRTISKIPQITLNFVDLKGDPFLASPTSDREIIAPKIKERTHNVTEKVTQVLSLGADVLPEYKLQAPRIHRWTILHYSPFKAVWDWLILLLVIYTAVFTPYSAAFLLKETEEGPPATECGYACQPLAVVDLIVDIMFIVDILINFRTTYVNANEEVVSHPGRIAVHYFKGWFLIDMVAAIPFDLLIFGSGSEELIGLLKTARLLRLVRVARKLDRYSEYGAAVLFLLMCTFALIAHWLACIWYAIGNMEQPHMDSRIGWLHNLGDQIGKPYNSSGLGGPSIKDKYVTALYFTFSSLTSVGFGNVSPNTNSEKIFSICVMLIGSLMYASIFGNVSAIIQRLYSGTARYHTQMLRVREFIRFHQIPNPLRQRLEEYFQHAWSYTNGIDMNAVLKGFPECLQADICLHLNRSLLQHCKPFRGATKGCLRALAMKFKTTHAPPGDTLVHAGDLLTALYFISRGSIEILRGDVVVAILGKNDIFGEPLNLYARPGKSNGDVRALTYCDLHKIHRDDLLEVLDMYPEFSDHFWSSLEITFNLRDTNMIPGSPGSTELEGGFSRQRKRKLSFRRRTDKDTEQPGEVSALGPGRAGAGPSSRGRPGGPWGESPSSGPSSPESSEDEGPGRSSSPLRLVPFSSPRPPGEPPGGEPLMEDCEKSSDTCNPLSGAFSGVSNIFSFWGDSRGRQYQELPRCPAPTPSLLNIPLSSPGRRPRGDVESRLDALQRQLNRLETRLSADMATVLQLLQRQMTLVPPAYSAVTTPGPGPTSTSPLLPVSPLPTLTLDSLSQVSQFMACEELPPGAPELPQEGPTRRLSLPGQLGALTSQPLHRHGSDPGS
In short: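 Fluorescence-polarization tracer displacement on hERG cell membranes; compound and high-affinity tracer incubated 2 h at 25 °C. % inhibition from mP relative to buffer (0%) and 30 μM E4031 (100%) over several concentrations, giving an IC50 range.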

MAO-B = target: T3, MAO-B (Homo sapiens, UniProt P27338); test: Inhibition of the enzymatic activity of MAO-B; assay type: biochemical; conditions: range of IC50 from inhibition rates at 10 μM, 1 μM and 0.1 μM; read-out: IC50, inhibition against the enzymatic activity of MAO-B
T3 construct: purchased Sigma Aldrich
T3 sequence (P27338 1-520): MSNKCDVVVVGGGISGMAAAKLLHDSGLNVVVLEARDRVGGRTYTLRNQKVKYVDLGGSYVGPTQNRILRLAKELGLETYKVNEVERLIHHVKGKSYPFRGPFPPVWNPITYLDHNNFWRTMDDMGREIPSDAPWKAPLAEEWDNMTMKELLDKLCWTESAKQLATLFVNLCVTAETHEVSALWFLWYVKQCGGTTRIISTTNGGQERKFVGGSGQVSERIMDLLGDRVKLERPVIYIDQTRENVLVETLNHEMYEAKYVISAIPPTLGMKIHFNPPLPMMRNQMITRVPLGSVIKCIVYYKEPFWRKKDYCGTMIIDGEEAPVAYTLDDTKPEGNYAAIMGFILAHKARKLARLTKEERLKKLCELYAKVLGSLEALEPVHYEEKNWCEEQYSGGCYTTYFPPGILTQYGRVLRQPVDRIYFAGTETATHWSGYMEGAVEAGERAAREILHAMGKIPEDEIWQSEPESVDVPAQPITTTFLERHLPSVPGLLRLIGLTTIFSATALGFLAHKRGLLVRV
Method: Inhibition Experiment Against the Enzymatic Activity of MAO-B (Monoamine Oxidase Type B)
as §1
Protein: MAO-B, manufacturer: Sigma Aldrich
According to the method as described in the specification of the test kit, MAO-B protein (5 μg/ml) and different concentrations of the test compound were pre-incubated at room temperature for 10 minutes, and then 150 μM benzylamine hydrochloride, 1 U/mL HRP and 200 μM Amplex Red reagent were added to start the reaction. The relative inhibition rate of each concentration group were calculated according to the experimental method of MAO-A.
According to the above method, the inhibition of the compound against the activity of the MAO-B was measured, and the range of IC50 was obtained according to the inhibition rates at 10 μM, 1 μM and 0.1 μM.

Compound	IC50 (DAO)	IC50 (MAO-B)	IC50 (hERG)
NC/C(=C/F)COc1ccc2c(c1)CCNC2=O [TM26-Z, (Z)-6-((2-aminomethyl-3-fluoroallyl)oxy)-3,4-dihydroisoquinolin-1(2H)-one trifluoroacetate]	–	> 1 µM	> 10 µM
NC/C(=C\F)COc1ccc(-c2ncccn2)cc1 [TM39-E, (E)-2-(4-(2-pyrimidyl)phenoxymethyl)-3-fluoroallylamine trifluoroacetate]	–	–	> 10 µM
(E)-6-((2-(methylamino)-3-fluoroallyl)oxy)-2-methyl-3,4-dihydroisoquinolin-1(2H)-one trifluoroacetate [TM66-E]	> 0.1 µM	> 10 µM	> 10 µM
(E)-6-((2-(methylamino)-3-fluoroallyl)oxy)-3,3-dimethyl-3,4-dihydro-isoquinolin-1(2H)-one trifluoroacetate [TM38-E]	> 1 µM	> 10 µM	> 10 µM

Continued, in another order:

IC50 (DAO)	IC50 (MAO-B)	Compound	IC50 (hERG)
> 0.1 µM	–	NC/C(=C\F)COc1ccc(C(=O)Nc2ccccc2)cc1 [TM1-E, (E)-N-phenyl-4-((2-aminomethyl-3-fluoroallyl)oxy)-benzamide trifluoroacetate]	> 10 µM
> 1 µM	> 10 µM	NC/C(=C\F)COc1ccc2c(c1)C(=O)CC2 [TM7-E, (E)-6-((2-aminomethyl-3-fluoroallyl)oxy)-2,3-dihydro-1-indenone trifluoroacetate]	> 10 µM
> 0.1 µM	> 1 µM	NC/C(=C\F)COc1ccc(C(=O)NC2CCOCC2)cc1 [TM76-E, (E)-N-(tetrahydro-2H-pyran-4-yl)-4-((2-aminomethyl-3-fluoroallyl)oxy)-benzamide trifluoroacetate]	> 10 µM
> 0.1 µM	> 0.1 µM	NC/C(=C/F)COc1ccc(C(=O)NCc2ccccn2)cc1 [TM112-Z, (Z)-4-((2-aminomethyl-3-fluoroallyl)oxy)-N-(pyridin-2-ylmethyl)benzamide trifluoroacetate]	> 10 µM
